{"source": "patent US20150376216A1", "about": "“SUGAR-ANALOG PHOSPHORUS-CONTAINING HETEROCYCLES HAVING AN ANTI-METASTATIC ACTIVITY” (CENTRE NATIONAL DE LA RECHERCHE SCIENTIRIQUE, priority 2013, published 2015)", "key": {"MDAMB-231": {"test_system": "MDAMB-231", "assay": "MTT antiproliferative test, MDAMB-231", "assay_type": "cell-based", "details": "Homo sapiens, MDA-MB-231, read-out: IC50, inhibition of proliferation", "experimental": "(§1) The lines MDAMB-435 and A431 are seeded at a density of 3000 cells per well in 96-well plates. After 24 hours, compounds 4.2a and 5.6d resuspended in 100% DMSO are added at concentrations of 0-0.001-0.010-0.1-1-10-50 μM for a final constant amount of DMSO of 0.3%. The cultures are maintained for a further 72 hours and an MTT colorimetric test is then performed. 100 μl of a solution of MTT at 5 mg/ml in PBS are added to the culture medium, which is left to incubate for 3 hours. The culture medium is removed and the cells are lyzed by adding 100 μL of a 4 mM HCl solvent, 0.1% Nondet P-40 (NP40) in isopropanol. The yellow tetrazolium MTT salt (3-(4,5-dimethylthiazol-2-yl)-2,5-diphenyl tetrazolium bromide), when it is reduced by the mitochondrial succinate dehydrogenase of active live cells, forms a blue-violet formazan product. The medium then changes from yellow to blue-violet. The intensity of this coloration at 590 nm is proportional to the number of live cells present during the test and gives an indication of the metabolic activity of these cells.\n(§2) Table 1 gives the concentration values for 50% inhibition of proliferation (IC50) for compounds 4.2a and 5.6d on lines derived from bowel cancer (CaCo2), skin cancer (A431, MDAMB-435, B16F10), breast cancer (MDAMB-431), […] (HuH7), prostate cancer (DU145) and brain cancer (SNB75, Gli4, Gli7)."}, "MDAMB-435 melanoma line": {"test_system": "MDAMB-435 melanoma line", "assay": "MTT antiproliferative test, MDAMB-435", "assay_type": "cell-based", "details": "Homo sapiens, MDA-MB-435, 72 hours, read-out: IC50, inhibition of proliferation", "experimental": "as §1, §2"}, "HuH7": {"test_system": "HuH7", "assay": "MTT antiproliferative test, HuH7", "assay_type": "cell-based", "details": "Homo sapiens, Huh-7, read-out: IC50, inhibition of proliferation", "experimental": "as §1, §2"}, "B16F10": {"test_system": "B16F10", "assay": "MTT antiproliferative test, B16F10", "assay_type": "cell-based", "details": "Mus musculus, B16-F10, read-out: IC50, inhibition of proliferation", "experimental": "as §1, §2"}, "SNB75 glioblastoma line": {"test_system": "SNB75 glioblastoma line", "assay": "MTT antiproliferative test, SNB75", "assay_type": "cell-based", "details": "Homo sapiens, SNB-75, read-out: IC50, inhibition of proliferation", "experimental": "(§3) Several cancer cell lines were used for the in vivo or in vitro biological tests: • SNB75 is a human glioblastoma line derived from a primary culture, i.e. derived from a primary malignant cancer tumor. It forms part of the panel of 59 cancer lines referenced by the NCI. Its Cosmic reference number published by the Welcome Trust Sanger Institute is 905982. This line was supplied by a person (M.D. Ph.D of the department of “Radiation Oncology”, Stanford University Medical Center). It was cultured in Ham's F-12 and DMEM (1/1) supplemented with 10% fetal bovine serum. The experiments were performed with cells in the exponential growth phase. • Gli4 (or Gli4F11) and Gli7 are cultures of cancer strain cells derived from human glioblastomas (primary cultures). These lines are CD133^+, CD15^+ which are multipotent and tumorigenic in animals. They were established by J. P. Hugnot (INM INSERM U-1051 Eq. 4), and described in Guichet, P. O. et al, Glia 2013, 61(2), 225-239; • C6 is a rat glioblastoma line. It is referenced in the ATCC under the reference CCL-107. • MDAMB-435 is a melanoma line derived from a mammary melanoma. It forms part of the panel of 59 cancer lines referenced by the NCI. It is referenced at the ATCC under the reference HTB-129. It was cultured in Ham's F-12 and DMEM (1/1) supplemented with 10% fetal bovine serum. […]"}, "Gli7": {"test_system": "Gli7", "assay": "MTT antiproliferative test, Gli7", "assay_type": "cell-based", "details": "Homo sapiens, read-out: IC50, inhibition of proliferation", "experimental": "as §3"}, "Acute in vivo toxicity": {"assay": "Acute in vivo toxicity", "details": "healthy mice; 50, 25, 10, 5 and 1 mg/kg; maximum dose 50 mg/kg", "experimental": "Studies of the acute toxicity of compounds 3.48a and 4.2a were performed on healthy mice for a concentration range of 50, 25, 10, 5 and 1 mg/kg."}, "MDAMB-435 cells": {"test_system": "MDAMB-435 cells", "assay": "MDAMB-435 subcutaneous model", "assay_type": "in vivo, mice", "experimental": "A suspension of 1×10^6 MDAMB-435 cells in 100 μl of sterile PBS (phosphate-buffered saline, supplied by Fisher) was injected into each mouse (subcutaneous administration, with anesthesia, in the mammary gland of the left hind quarter). Once a control pregroup of three mice presented the first metastases (liver, intestine, ovary), the protocol was conducted with […] of eight mice. The five groups of mice were treated using one of the five formulations described below:\nGroup A: Treatment by injection of 100 μl of NaCl (control N° 1).\nGroup B: Treatment by injection of 100 to 150 μl according to the weight of the mice of formulation 2 not containing compound 4.2a (control N° 2).\nGroup C: Treatment with compound 4.2a at a rate of 10 mg/kg with volumes of 100 to 150 μl of formulation 2 depending on the weight of the mice.\nGroup D: Treatment with compound 4.2a at a rate of 5 mg/kg with volumes of 100 to 150 μl of formulation 2 depending on the weight of the mice.\nEach batch was treated by intravenous injection into the caudal vein of 100 to 150 μl of solution (precision syringe and G25X1 needle ultrafine wall, VWR). Three injections per week for four weeks were performed. The mice were weighed at each injection. The mice were sacrificed after four weeks, and the tumors and organs (liver, kidney, spleen, brain, intestine, heart, muscles) were removed. A histological analysis was performed on these organs."}, "[1]": {"assay": "Solubility / formulation behaviour", "assay_type": "physicochemical", "experimental": "The following two formulations are particularly suited to compounds 3.48a and 4.2a and allow their in vivo administration, at concentrations of about 20-100 mg/kg, intravenously: […]"}, "[2]": {"details": "10 and 5 mg/kg i.v. (groups C and D), three injections per week for four weeks"}}, "note": "pIC50: −log10 of the molar value."}
{"smiles": "CC1(C)O[C@H]2[C@@H]([C@H]3COC(C)(C)O3)O[P@](=O)(c3ccccc3)[C@@H](OC(=O)c3ccccc3)[C@H]2O1", "note": "[Compound 4.2a, (SPRSRR)-3-benzoate-4-(2,2-dimethyl-[1,3]dioxolan-4-yl)-2,2-dimethyl-2-oxo-2-phenyl-tetrahydro-2λ^5-[1,2]oxaphosphinane]", "values": [{"measurement": "pIC50", "setting": "MDAMB-231", "value": 5.94}, {"measurement": "pIC50", "setting": "MDAMB-435 melanoma line", "value": 6.18}, {"measurement": "pIC50", "setting": "HuH7", "value": "< 4.00"}, {"measurement": "pIC50", "setting": "B16F10", "value": 4.87}, {"measurement": "pIC50", "setting": "SNB75 glioblastoma line", "value": 5.02}, {"measurement": "pIC50", "setting": "Gli7", "value": 5.57}, {"measurement": "Mortality, acute toxicity", "setting": "Acute in vivo toxicity", "value": "No mortality was observed"}, {"measurement": "Metastases in the ovaries (FIG. 4)", "setting": "MDAMB-435 cells; 10 and 5 mg/kg (groups C and D)", "value": "absence of metastases"}, {"measurement": "Number of metastases per mouse (FIG. 5)", "setting": "MDAMB-435 cells; 10 and 5 mg/kg (groups C and D), controls predominantly more than two", "value": "none of the mice treated with compound 4.2a (groups C and D) developed more than two metastases"}, {"measurement": "Metastatic development (size of metastases)", "setting": "MDAMB-435 cells; [2]", "value": "a reduction in metastatic development (small-sized metastases)"}, {"measurement": "Number of metastases", "setting": "MDAMB-435 cells; [2]", "value": "a large reduction in the number of metastases"}, {"measurement": "Mass distribution of secondary tumors (FIG. 6)", "setting": "MDAMB-435 cells; as a function of the treatment conditions", "value": "reduced the development of metastases"}, {"measurement": "Complexation in cyclodextrins", "setting": "[1]", "value": "non-complexible in cyclodextrins"}, {"measurement": "Solubility", "setting": "[1]; water, water-soluble solvents", "value": "insoluble in water, in numerous water-soluble solvents"}]}
